# Reference: US20090130273A1, “FREEZE DRIED SUCRALOSE” (TATE & LYLE TECHNOLOGY LIMITED, priority 2007, published 2009)
# How the values were obtained:
# [1] = Moisture absorption as a function of relative humidity; assay type: physicochemical; details: for moisture absorption behaviour compared with the other samples: RH ramp 0 to 80 % and back down to 20 %
# Procedure: Sucralose beads prepared from seeded and unseeded aqueous sucralose solutions using the liquid nitrogen technique described above were evaluated to determine degree of moisture absorption as a function of relative humidity (% RH). A sample of commercial sucralose needles (“neat” sucralose) was also evaluated in parallel, and the results for these runs are shown in Table 1. Each column represents a ramping up of % RH from zero to 80, followed by ramping back down to 20.
# [2] = Thermogravimetric analysis, stability at high temperature; assay type: physicochemical; details: mass as a function of time at 90° C. in nitrogen
# Procedure: Thermogravimetric analysis was performed on commercial, seeded and unseeded samples made as described above in order to assess stability of the products at high temperature. The results are shown in FIGS. 4, 5 and 6, respectively. In each case, the mass of a sample was followed as a function of time at 90° C. in nitrogen, recorded as percent of original mass remaining. The vertical lines represent the point of the mass curve representing the halfway point of mass loss, and thus may be used as a measure of how rapidly decomposition set in. […] This further bears out the fact, noted above in view of the moisture absorption results, that these samples represent three different forms of sucralose.
"Mass Increase (%) ([1]; 0 % RH, start of upward ramp)","Mass Increase (%) ([1]; 20 % RH, ramping back down)","Mass Increase (%) ([1]; 20 % RH, ramping up)","Mass Increase (%) ([1]; 30 % RH, ramping back down)","Mass Increase (%) ([1]; 30 % RH, ramping up)","Mass Increase (%) ([1]; 40 % RH, ramping back down)","Mass Increase (%) ([1]; 40 % RH, ramping up)","Mass Increase (%) ([1]; 50 % RH, ramping back down)","Mass Increase (%) ([1]; 50 % RH, ramping up)","Mass Increase (%) ([1]; 60 % RH, ramping back down)","Mass Increase (%) ([1]; 60 % RH, ramping up)","Mass Increase (%) ([1]; 70 % RH, ramping back down)","Mass Increase (%) ([1]; 70 % RH, ramping up)","Mass Increase (%) ([1]; 80 % RH, top of ramp)",moisture absorption behaviour compared with the other samples ([1]; listed as unseeded product),onset of decomposition (halfway point of mass loss) ([2]; listed as unseeded product),"Mass Increase (%) ([1]; 80 % RH, top of ramp, listed as neat (commercial) product)",onset of decomposition (halfway point of mass loss) ([2]; listed as seeded product),SMILES,onset of decomposition (halfway point of mass loss) ([2]; listed as commercial sample),moisture absorption behaviour compared with the other samples ([1]; listed as seeded product)
0.00%,0.60%,1.09%,0.81%,2.21%,1.15%,3.41%,2.01%,4.91%,2.91%,6.21%,4.11%,6.71%,7.11%,significantly higher moisture absorption,intermediate between the two,–,–,"OCC1O[C@@H](O[C@]2(CCl)O[C@@H](CCl)C(O)C2O)C(O)C(O)[C@H]1Cl (stereo in doubt) [Not Seeded, 4,1′,6′-trichloro-4,1′,6′-trideoxygalactosucrose]",–,–
0.00%,0.00%,0.00%,0.00%,0.00%,0.00%,0.00%,0.00%,0.00%,0.00%,0.00%,0.00%,0.00%,0.10%,–,–,0.1%,–,"OCC1O[C@@H](O[C@]2(CCl)O[C@@H](CCl)C(O)C2O)C(O)C(O)[C@H]1Cl (stereo partly drawn) [Neat, 4,1′,6′-trichloro-4,1′,6′-trideoxygalactosucrose, reference compound]",earliest to show significant decomposition,–
0%,0.02%,0.01%,0.02%,0.02%,0.02%,0.02%,0.03%,0.02%,0.03%,0.03%,0.04%,0.03%,0.04%,–,–,–,took considerably longer,"OCC1O[C@@H](O[C@]2(CCl)O[C@@H](CCl)C(O)C2O)C(O)C(O)[C@H]1Cl (stereo partly drawn) [Seeded, 4,1′,6′-trichloro-4,1′,6′-trideoxygalactosucrose]",–,maximum value was less than half of that seen with the commercial product
